Entries after “also recorded” stand apart in the source; their conditions may differ.
Legend:
[1] = test system: chick embryo chorioallantoic membrane; assay: Chick embryo chorioallantoic membrane (CAM) assay; format: in vivo; conditions: 100 mg disk, after 48 hours
Experimental: Anti-angiogenic activity is evaluated in vivo by testing the ability of a compound to inhibit the proliferation of new blood vessel cells (angiogenesis). A suitable assay is the chick embryo chorioallantoic membrane (CAM) assay described by Crum et al., Science 230:1375 (1985). See also, U.S. Pat. No. 5,001,116, which is hereby incorporated by reference in its entirety. Briefly, fertilized chick embryos are removed from their shell on day 3 or 4, and a methylcellulose disc containing the drug is implanted on the chorioallantoic membrane. The embryos are examined 48 hours later and, if a clear avascular zone appears around the disc, the diameter of that zone is measured.

tubulin [2] = test system: T1, tubulin; assay: Tubulin polymerization inhibition in vitro (turbidity at 350 nm); format: biochemical; conditions: for IC50: 1.0 M glutamate, 10 μM tubulin
T1 construct: other: 1.0 M glutamate, 10 μM tubulin; Effect on tubulin polymerization / microtubule assembly
Experimental: Microtubule assembly is followed in a temperature controlled recording spectrophotometer. For details and a discussion, see R. D'Amato et al., Proc Natl Acad Sci USA, 91:3964-3968 (1994).
A typical reaction mixture, which will have a final reaction volume of […], contains 1.0 M monosodium glutamate (pH 6.6), 1.0 mg/ml (10 μM) tubulin, 1.0 MM MgCl2, 4% (v/v) dimethylsulfoxide, and a compound to be tested at the desired concentration (typically 0.1 to 100 μM). The reaction mixtures are incubated for 15 min. at 37° C. and then chilled on ice. After addition of 10 μl 12.5 mM GTP (and, optionally, 0.33 mg/ml microtubule-associated proteins, or MAPs) to initiate polymerization, each reaction mixture is transferred to a cuvette at 0° C., and a baseline established. At time zero, the temperature controller of the spectrophotometer is set to a target temperature, typically between 25 and 37° C. Microtubule assembly is monitored by observing an increase in turbidity at 350 nm as the temperature of the reaction mixture rises to the set target temperature.
The results are presented in Table 1 as IC50 values (μM) for inhibition of tubulin polymerization. Alternatively, inhibition of microtubule assembly can be detected by transmission electron microscopy, as described in U.S. Pat. No. 5,504,074 which is hereby incorporated by reference in its entirety.

tumor cells = assay: Inhibition of cell growth in the NCI Developmental Therapeutics Program tumor cell screen; format: cell-based; conditions: mean graph midpoint for all cell lines tested
Experimental: The compounds of the invention were tested for inhibition of cell growth in the established tumor cell screen of the National Cancer Institute Developmental Therapeutics Program. See Boyd et al., Drug Dev. Res., 34:91-109 (1995). Results are presented in Table 1 as the “MGM” values (mean graph midpoint, in μM, for all cell lines tested).

tubulin [3] = test system: T2, tubulin; assay: Tubulin polymerization inhibition in vitro (turbidity at 350 nm); format: biochemical; design: key: *: Accelerates tubulin polymerization; conditions: no IC50 derivable
T2 construct: Activity in room temperature assay; other: no polymerization in the absence of drug; other: GTP-only system, critical concentrations

tubulin [4] = test system: T2, tubulin; assay: Enhancement of glutamate- or MAP-induced tubulin assembly, turbidimetric curves (FIGS. 4 and 5); format: biochemical
tubulin [5] = test system: T2, tubulin; assay: as above; format: biochemical; conditions: for Effect on MAP-induced tubulin assembly: 0.75 mg/ml MAPs, 1.0 mg/ml tubulin, 25° C.
Experimental: In those cases where acceleration of tubulin polymerization is observed, an IC50 value for inhibition of polymerization is of course not derivable. Results for such compounds may be presented in the form of turbidimetric curves, e.g. as presented in FIGS. 4 and 5 for representative compounds 13 and 18.
FIG. 4: Each reaction mixture contained 0.8 M glutamate (pH 6.6), 0.4 mM GTP, 12 μM (1.2 mg/ml) tubulin, 4% (v/v) dimethyl sulfoxide, and compound 13 or 18 as indicated. Baselines were established at 0°, and at time zero the temperature controller was set at 26°. At the time indicated by the dashed line, the temperature controller was set at 0°. A. Curve 1, no drug; curve 2, 2 μM compound 13; curve 3, 5 μM 7; curve 4, 10 μM 7; curve 5, 40 μM 7; curve 6, 40 μM 14. B. Curve 1, no drug; curve 2, 2 μM compound 18; curve 3, 5 μM 18; curve 4, 10 μM 18; curve 5, 40 μM 18.
FIG. 5: Each reaction mixture contained 0.1 M Mes (pH 6.9 with NaOH in 0.5 M stock solution), 0.1 mM GTP, 10 μM (1.0 mg/ml) tubulin, 0.75 mg/ml heat-treated MAPs, 4% dimethyl sulfoxide, and drug as indicated. […] There was no change in turbidity in any reaction mixture. At this point the temperature controller was set at 10°, and subsequent temperature changes, as indicated, were made at the times indicated by the vertical dashed lines. Curve 1, no drug; curve 2, 10 μM paclitaxel; curve 3, 10 μM compound 13; curve 4, 20 μM 7; curve 5, 40 μM 7; curve 6, 10 μM compound 18.

tubulin [6] = test system: T2, tubulin; assay: Critical concentration of tubulin for assembly, turbidimetric (FIG. 6); format: biochemical
Experimental: FIG. 6 presents critical concentrations, obtained at 30° C., of tubulin with paclitaxel and compound 13. A: MAPs -and GTP-dependent assembly without drug and in the presence of 10 μM paclitaxel or 10 μM 13. B: GTP-dependent, MAP-independent assembly with 10 μM paclitaxel or 10 μM 13.
Measurement of the critical concentration with and without MAPs with paclitaxel, and again with 13, was therefore carried out to provide some idea of the comparative activity of these agents. The data are presented in FIG. 6, which yield critical concentrations, obtained at 30° C., of 1.4, 0.06, and 0.50 mg/ml for MAP-and GTP-dependent assembly without drug and in the presence of 10 μM paclitaxel or 10 μM 13, respectively, and 0.20 and 1.4 mg/ml for GTP-dependent, MAP-independent assembly with 10 μM paclitaxel or 10 μM 13. […] (A constant weight ratio of MAPs to tubulin of 1:3 was used, because the suboptimal concentration of MAPs caused greater differences in the critical concentrations obtained.) Reaction mixtures (0.25 ml) contained 0.1 M Mes (pH 6.9), 100 μM GTP, 4% dimethyl sulfoxide, the indicated tubulin concentration (with heat-treated MAPs in 1:3 weight ratio to the tubulin, panel A only), and either 10 μM paclitaxel (▴), 10 μM compound 13 (◯), or no drug (▾). Cuvette contents were equilibrated at 0°, drugs were added, temperature was jumped to 30° (about one min), and the turbidity changes after a 20 min incubation measured.

tubulin [7] = test system: T2, tubulin; assay: Polymer morphology by electron microscopy; format: biochemical; conditions: 40 μM 13 or 10 μM paclitaxel
Text: It was possible that compounds 13 and 18 were not actually acting like paclitaxel in enhancing microtubule assembly and in stabilizing the microtubules formed in the course of the turbidity studies shown in FIG. 4, but that these agents were causing formation of polymers of aberrant morphology and temperature stability different from microtubules, such as occurs with vinca alkaloids. Polymer morphology was examined by electron microscopy. […] Even more important, when the reaction mixtures were returned to 0° C. for 15 min, no microtubules were visualized on grids prepared from the reaction mixture without drug.

melting point [°C] | IC50 (tubulin [2]) [µM] | Structure (SMILES) | Cytotoxicity (MGM μM) (tumor cells) [µM] | other results
 |  | COc1cc2c(cc1O)CC[C@@H]1[C@@H]2CC[C@]2(C)[C@@H](O)CC[C@@H]12 [2-methoxyestradiol] |  | Inhibition of cell mitosis and growth of new blood vessels [1]: inhibit cell mitosis and the growth of new blood vessels
 | > 40 | CCOc1cc2c(cc1O)NCCC1C2CCC2(C)C(O)CCC12 (stereo not drawn) [Compound 30, B-Homo-6-aza-2-ethoxyestra-1,3,5(10)-triene-3,17β-diol] | 49.0 | 
 | > 40 | CCOc1cc2c(cc1O)CC(=NNS(=O)(=O)c1ccc(C)cc1)CC1C2CCC2(C)C(O)CCC12 (stereo not drawn) [Compound 10, B-Homo-2-ethoxy-3,17β-dihydroxyestra-1,3,5(10)-triene-7-one toluenesulfonyl-hydrazone] |  | 
222 to 223 | 4 | CCOc1cc2c(cc1O)NC(=O)CC1C2CCC2(C)C(O)CCC12 (stereo not drawn) [Compound 29, B-Homo-6-aza-2-ethoxy-3,17β-dihydroxyestra-1,3,5(10)-trien-7-one] | 16.2 | Effect on tubulin polymerization / microtubule assembly (tubulin [2]): inhibit tubulin polymerization
 |  | CCOc1cc2c(cc1O)C(=O)CC[C@@H]1[C@@H]2CC[C@]2(C)[C@@H](OC(C)=O)CC[C@@H]12 [Compound 18, B-Homo-17β-acetoxy-2-ethoxy-3-hydroxyestra-1,3,5(10)-trien-6-one] |  | Tubulin polymerization inhibition, symbol instead of IC50 (tubulin [3]): *; Effect on tubulin polymerization / microtubule assembly (tubulin [2]): stimulate microtubule assembly; Tubulin assembly in the absence of GTP (tubulin [4]): has not been observed; Effect on glutamate- and MAP-induced tubulin assembly (tubulin [5]): activity was largely retained; Effect on MAP-induced tubulin assembly (tubulin [5]): enhanced tubulin assembly; also recorded: less stimulatory than 13; also recorded: significantly less than that of paclitaxel
 | > 40 | CCOc1cc2c(cc1O)C(=O)CCC1C2CCC2(C)C(O)CCC12 (stereo not drawn) [Compound 14, B-Homo-2-ethoxy-6-oxoestra-1,3,5(10)-trien-3,17β-diol] |  | Effect on glutamate- and MAP-induced tubulin assembly (tubulin [5]): inactive
189 to 191 | 25 | CCOc1cc2c(cc1O)N(C(C)=O)CCC1C2CCC2(C)C(O)CCC12 (stereo not drawn) [Compound 32, B-Homo-6-acetyl-6-aza-2-ethoxyestra-1,3,5(10)-triene-3,17β-diol] | 35.5 | Effect on tubulin polymerization / microtubule assembly (tubulin [2]): inhibit tubulin polymerization
 |  | CC(=O)O[C@H]1C(=O)[C@@]2(C)[C@H]([C@H](OC(=O)c3ccccc3)[C@]3(O)C[C@H](OC(=O)[C@H](O)[C@@H](NC(=O)c4ccccc4)c4ccccc4)C(C)=C1C3(C)C)[C@]1(OC(C)=O)CO[C@@H]1C[C@@H]2O [paclitaxel, Paclitaxel, reference compound] |  | Critical concentration of tubulin, MAP- and GTP-dependent assembly (tubulin [6]; 30° C., 10 μM drug, MAPs:tubulin 1:3 by weight): 0.06 mg/mL; Critical concentration of tubulin, GTP-dependent, MAP-independent assembly (tubulin [6]; 30° C., 10 μM drug, no MAPs): 0.20 mg/mL; Affinity for tubulin polymers relative to compound 13 (tubulin [6]; from critical concentrations): 7-8 fold; Assembly reaction when either MAPs or GTP was omitted (tubulin [4]; 10 μM tubulin, 40 μM compound 13 or 10 μM paclitaxel): a reaction was observed in both cases; Cold stable microtubules after return to 0° C. for 15 min (tubulin [7]): abundant cold stable microtubules were observed; Effect on MAP-induced tubulin assembly (tubulin [5]): much more extensive than that with compound 13
86 to 88 | 1.3 | CCOc1cc2c(cc1O)CCCC1C2CCC2(C)C(O)CCC12 (stereo not drawn) [Compound 11, B-Homo-2-ethoxy-3.17β-estradiol] |  | Effect on tubulin polymerization / microtubule assembly (tubulin [2]): inhibit tubulin polymerization
210 to 212 | > 40 | CCOc1cc2c(cc1O)CC(=O)CC1C2CCC2(C)C(O)CCC12 (stereo not drawn) [Compound 9, B-Homo-3,170β-dihydroxy-2-ethoxyestra-1,3,5(10)-triene-7-one] |  | 
 | > 40 | CCOc1cc2c(cc1O)N(CC)CCC1C2CCC2(C)C(O)CCC12 (stereo not drawn) [Compound 33, B-Homo-6-aza-2-ethoxy-6-ethylestra-1,3,5(10)-triene-3,17β-diol] | 50.1 | 

Structure (SMILES) | melting point [°C] | IC50 (tubulin [2]) [µM] | Cytotoxicity (MGM μM) (tumor cells) [µM] | other results
CCOc1cc2c(cc1O)C(=NO)C[C@@H]1[C@@H]2CC[C@]2(C)[C@@H](OC(C)=O)CC[C@@H]12 [Compound 27, 17β-Acetoxy-2-ethoxy-6-hydroximinoestra-1,3,5(10)-triene-3-ol] | 226 to 227 | > 40 | 0.567 | 
CCOc1cc2c(cc1OC(C)=O)C(=O)CCC1C2CCC2(C)C(O)CCC12 (stereo not drawn) [Compound 19, B-Homo-3-Acetoxy-2-ethoxy-17β-hydroxyestra-1,3,5(10)-trien-6-one] |  | > 40 |  | Effect on glutamate- and MAP-induced tubulin assembly (tubulin [5]): inactive
CCOc1cc2c(cc1OC(C)=O)CCCC1C2CCC2(C)C(OC(C)=O)CCC12 (stereo not drawn) [Compound 12, B-Homo-3,17β-diacetoxy-2-ethoxyestra-1,3,5(10)-triene] | 98 to 100 | > 40 |  | 
CCOc1cc2c(cc1OC(C)=O)N(C(C)=O)CCC1C2CCC2(C)C(OC(C)=O)CCC12 (stereo not drawn) [Compound 31, B-Homo-6-acetyl-6-aza-3,17β-diacetoxy-2-ethoxyestra-1,3,5(10)-triene] |  | > 40 | 38.0 | 
